Test results published in ChEMBL document CHEMBL4507291 (2021).

Experiments:
[1] = target: Dual specificity tyrosine-phosphorylation-regulated kinase 1A (Homo sapiens) (UniProt Q13627); assay: DYRK1A Kinase screen; conditions: Compound concentration 1.0 uM
[2] = target: AMPK alpha2/beta1/gamma1 (Homo sapiens) (UniProt P54646+P54619+Q9Y478); assay: AMPK A2/B1/G1 Kinase screen; format: protein-complex assay; conditions: Compound concentration 1.0 uM
[3] = target: D(2) dopamine receptor (Homo sapiens) (UniProt P14416); conditions: Compound concentration 10.0 uM
[4] = target: T1, Beta-adrenergic receptor kinase 1 (Homo sapiens) (UniProt P25098); assay: ADRBK1 (GRK2) Kinase screen; conditions: Compound concentration 1.0 uM
T1 sequence (whole entry): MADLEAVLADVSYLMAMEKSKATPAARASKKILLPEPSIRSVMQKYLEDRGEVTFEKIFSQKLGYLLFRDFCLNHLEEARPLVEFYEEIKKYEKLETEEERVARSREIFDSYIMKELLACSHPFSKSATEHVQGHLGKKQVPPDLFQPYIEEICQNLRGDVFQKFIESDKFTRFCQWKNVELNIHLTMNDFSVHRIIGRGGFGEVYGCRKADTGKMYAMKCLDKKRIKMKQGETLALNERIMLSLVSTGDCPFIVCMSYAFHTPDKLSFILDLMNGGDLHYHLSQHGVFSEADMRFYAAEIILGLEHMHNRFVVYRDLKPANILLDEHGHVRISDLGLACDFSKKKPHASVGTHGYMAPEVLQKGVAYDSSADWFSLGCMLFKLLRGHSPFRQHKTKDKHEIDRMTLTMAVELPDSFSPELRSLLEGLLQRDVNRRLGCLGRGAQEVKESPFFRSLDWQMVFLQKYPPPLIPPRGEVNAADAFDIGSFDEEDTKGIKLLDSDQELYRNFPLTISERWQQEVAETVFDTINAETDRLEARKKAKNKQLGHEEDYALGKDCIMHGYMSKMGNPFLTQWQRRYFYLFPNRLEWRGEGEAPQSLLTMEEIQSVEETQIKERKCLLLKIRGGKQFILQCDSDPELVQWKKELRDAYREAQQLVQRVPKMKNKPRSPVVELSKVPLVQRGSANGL

[5] = target: T2, Tyrosine-protein kinase receptor TYRO3 (Homo sapiens) (UniProt Q06418); assay: TYRO3 (RSE) Kinase screen; conditions: Compound concentration 1.0 uM
T2 sequence (whole entry): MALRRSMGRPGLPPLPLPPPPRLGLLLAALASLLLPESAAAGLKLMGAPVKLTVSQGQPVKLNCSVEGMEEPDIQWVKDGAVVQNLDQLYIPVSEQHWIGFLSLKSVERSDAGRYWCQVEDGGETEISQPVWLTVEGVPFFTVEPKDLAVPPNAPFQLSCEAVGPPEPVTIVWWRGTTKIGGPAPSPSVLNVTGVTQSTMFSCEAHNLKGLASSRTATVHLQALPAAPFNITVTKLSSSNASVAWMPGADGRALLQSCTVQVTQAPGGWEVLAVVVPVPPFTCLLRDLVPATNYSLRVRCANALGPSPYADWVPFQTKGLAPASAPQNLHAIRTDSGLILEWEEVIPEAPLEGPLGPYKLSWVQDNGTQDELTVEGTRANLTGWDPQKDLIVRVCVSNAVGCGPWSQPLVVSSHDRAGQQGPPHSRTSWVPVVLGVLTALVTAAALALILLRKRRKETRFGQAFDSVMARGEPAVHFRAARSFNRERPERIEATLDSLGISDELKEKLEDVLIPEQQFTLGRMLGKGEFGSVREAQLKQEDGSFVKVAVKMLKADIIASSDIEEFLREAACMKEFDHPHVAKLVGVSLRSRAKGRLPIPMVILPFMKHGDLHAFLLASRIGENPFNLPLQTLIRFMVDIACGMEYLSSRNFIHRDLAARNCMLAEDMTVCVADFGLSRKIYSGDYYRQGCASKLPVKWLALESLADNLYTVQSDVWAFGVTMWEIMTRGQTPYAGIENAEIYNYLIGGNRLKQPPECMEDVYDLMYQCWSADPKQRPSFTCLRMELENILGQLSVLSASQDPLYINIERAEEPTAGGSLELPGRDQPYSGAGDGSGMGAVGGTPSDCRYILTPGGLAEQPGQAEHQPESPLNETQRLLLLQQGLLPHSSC

[6] = target: Epidermal growth factor receptor (Homo sapiens) (UniProt P00533); assay: EGFR (ErbB1) Kinase screen; conditions: Compound concentration 1.0 uM
Epidermal growth factor receptor (Homo sapiens), sequence (P00533 whole entry): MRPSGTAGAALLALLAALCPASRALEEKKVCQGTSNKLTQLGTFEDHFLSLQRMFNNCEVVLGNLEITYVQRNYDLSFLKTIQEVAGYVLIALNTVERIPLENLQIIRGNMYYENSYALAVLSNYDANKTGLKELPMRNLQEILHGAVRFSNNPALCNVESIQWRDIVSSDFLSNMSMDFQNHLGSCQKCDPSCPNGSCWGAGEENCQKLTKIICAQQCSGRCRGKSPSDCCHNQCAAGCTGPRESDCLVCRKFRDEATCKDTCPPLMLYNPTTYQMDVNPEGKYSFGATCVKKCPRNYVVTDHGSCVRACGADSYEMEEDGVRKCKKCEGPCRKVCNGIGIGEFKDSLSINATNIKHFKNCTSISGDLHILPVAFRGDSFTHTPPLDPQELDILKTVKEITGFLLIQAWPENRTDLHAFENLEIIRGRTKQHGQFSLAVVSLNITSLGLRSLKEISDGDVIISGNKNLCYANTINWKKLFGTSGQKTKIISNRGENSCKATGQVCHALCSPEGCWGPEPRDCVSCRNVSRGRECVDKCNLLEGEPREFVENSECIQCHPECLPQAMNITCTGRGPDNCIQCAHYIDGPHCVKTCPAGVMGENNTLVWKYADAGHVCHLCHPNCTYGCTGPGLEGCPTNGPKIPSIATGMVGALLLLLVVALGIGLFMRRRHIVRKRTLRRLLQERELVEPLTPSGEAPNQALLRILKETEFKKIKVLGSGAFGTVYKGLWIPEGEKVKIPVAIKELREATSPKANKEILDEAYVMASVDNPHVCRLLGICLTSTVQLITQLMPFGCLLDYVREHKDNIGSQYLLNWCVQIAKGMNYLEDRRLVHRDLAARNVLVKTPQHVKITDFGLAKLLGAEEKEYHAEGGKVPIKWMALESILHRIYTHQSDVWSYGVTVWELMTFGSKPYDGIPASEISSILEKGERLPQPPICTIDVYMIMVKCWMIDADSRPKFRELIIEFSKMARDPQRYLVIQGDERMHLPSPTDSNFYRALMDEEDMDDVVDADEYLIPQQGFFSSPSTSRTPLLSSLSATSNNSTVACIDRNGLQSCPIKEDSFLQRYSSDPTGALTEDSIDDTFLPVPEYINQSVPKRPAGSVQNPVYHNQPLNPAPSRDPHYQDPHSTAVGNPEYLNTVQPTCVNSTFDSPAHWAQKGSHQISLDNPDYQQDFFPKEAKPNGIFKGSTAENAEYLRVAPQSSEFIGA

[7] = target: Serine/threonine-protein kinase Chk2 (Homo sapiens) (UniProt O96017); assay: CHEK2 (CHK2) Kinase screen; conditions: Compound concentration 1.0 uM
Serine/threonine-protein kinase Chk2 (Homo sapiens), sequence (O96017 whole entry): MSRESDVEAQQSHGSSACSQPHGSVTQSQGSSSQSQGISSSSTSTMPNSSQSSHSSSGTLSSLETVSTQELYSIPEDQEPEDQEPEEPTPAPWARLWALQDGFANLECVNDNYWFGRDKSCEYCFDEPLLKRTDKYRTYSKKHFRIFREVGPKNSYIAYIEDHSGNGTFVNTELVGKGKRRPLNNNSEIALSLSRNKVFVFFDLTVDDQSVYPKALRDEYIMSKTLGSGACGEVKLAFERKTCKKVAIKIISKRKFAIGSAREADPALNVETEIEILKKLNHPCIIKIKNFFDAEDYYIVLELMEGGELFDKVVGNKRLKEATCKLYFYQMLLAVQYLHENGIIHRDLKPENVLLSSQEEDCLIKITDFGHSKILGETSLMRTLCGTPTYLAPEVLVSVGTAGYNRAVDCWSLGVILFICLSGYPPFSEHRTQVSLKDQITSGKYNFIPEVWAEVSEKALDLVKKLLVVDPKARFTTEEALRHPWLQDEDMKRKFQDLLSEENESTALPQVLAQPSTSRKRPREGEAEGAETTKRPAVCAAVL

[8] = target: Glutamate NMDA receptor (Rattus norvegicus) (UniProt P35439+Q00959+Q00960+Q00961+Q62645+Q8VHN2+Q9R1M7); conditions: Compound concentration 10.0 uM
[9] = target: Mitogen-activated protein kinase kinase kinase kinase 5 (Homo sapiens) (UniProt Q9Y4K4); assay: MAP4K5 (KHS1) Kinase screen; conditions: Compound concentration 1.0 uM
Mitogen-activated protein kinase kinase kinase kinase 5 (Homo sapiens), sequence (Q9Y4K4 whole entry, looked up): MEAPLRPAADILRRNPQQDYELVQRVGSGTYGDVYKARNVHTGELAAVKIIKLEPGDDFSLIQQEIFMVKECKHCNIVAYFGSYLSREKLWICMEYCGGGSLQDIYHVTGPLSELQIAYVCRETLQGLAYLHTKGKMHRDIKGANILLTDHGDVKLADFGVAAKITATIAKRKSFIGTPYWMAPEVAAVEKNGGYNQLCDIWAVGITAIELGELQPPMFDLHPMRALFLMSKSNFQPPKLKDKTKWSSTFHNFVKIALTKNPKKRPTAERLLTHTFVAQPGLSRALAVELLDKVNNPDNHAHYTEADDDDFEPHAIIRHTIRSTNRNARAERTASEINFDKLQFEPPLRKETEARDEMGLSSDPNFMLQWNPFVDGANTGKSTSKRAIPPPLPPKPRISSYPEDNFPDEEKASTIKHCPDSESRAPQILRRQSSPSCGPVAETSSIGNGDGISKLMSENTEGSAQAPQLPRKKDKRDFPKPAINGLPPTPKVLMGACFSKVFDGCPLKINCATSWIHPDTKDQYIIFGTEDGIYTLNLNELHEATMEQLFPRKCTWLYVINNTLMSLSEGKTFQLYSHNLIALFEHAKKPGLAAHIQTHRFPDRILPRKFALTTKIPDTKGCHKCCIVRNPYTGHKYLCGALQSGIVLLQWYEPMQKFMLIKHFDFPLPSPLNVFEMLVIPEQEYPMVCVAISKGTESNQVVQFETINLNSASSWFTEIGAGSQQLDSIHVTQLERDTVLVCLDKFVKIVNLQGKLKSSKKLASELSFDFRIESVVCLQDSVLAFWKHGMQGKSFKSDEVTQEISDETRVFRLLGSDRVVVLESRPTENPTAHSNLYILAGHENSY

[10] = target: Histamine H4 receptor (Homo sapiens) (UniProt Q9H3N8); assay: Histamine H4 Eurofins-Panlabs radioligand binding assay; conditions: Compound concentration 10.0 uM
Histamine H4 receptor (Homo sapiens), sequence (Q9H3N8 whole entry): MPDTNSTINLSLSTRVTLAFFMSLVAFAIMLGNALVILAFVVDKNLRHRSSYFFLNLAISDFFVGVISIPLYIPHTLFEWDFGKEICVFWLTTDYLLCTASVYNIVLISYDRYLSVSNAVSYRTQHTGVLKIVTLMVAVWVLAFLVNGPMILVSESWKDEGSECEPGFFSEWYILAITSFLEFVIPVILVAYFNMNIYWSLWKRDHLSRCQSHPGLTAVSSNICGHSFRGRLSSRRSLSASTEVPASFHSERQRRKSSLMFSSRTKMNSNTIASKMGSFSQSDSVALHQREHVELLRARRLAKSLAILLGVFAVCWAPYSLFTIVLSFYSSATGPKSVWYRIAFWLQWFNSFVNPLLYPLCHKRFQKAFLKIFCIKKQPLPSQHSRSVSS

[11] = target: T3, Cytoplasmic tyrosine-protein kinase BMX (Homo sapiens) (UniProt P51813); assay: BMX Kinase screen; conditions: Compound concentration 1.0 uM
T3 sequence (whole entry): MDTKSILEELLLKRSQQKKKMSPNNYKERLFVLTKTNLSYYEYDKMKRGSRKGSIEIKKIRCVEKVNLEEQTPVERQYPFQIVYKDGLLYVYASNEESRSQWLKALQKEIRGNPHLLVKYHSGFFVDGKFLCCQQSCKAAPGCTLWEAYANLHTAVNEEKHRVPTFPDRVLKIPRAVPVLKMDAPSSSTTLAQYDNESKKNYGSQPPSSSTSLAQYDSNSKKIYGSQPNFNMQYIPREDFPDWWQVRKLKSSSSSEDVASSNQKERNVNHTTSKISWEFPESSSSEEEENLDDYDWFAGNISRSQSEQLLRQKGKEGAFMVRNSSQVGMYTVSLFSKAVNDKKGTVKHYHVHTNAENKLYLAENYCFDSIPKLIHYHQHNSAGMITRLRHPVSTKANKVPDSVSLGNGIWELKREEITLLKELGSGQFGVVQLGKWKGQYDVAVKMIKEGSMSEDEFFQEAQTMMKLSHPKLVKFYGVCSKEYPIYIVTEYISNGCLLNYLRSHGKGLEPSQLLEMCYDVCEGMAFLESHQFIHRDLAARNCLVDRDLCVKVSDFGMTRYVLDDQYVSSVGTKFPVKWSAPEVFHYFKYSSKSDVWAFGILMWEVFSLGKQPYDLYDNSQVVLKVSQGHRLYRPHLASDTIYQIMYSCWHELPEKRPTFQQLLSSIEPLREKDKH

[12] = target: Homeodomain-interacting protein kinase 1 (Homo sapiens) (UniProt Q86Z02); assay: HIPK1 (Myak) Kinase screen; conditions: Compound concentration 1.0 uM
[13] = target: Mitogen-activated protein kinase 10 (Homo sapiens) (UniProt P53779); assay: MAPK10 (JNK3) Kinase screen; conditions: Compound concentration 1.0 uM
Mitogen-activated protein kinase 10 (Homo sapiens), sequence (P53779 whole entry): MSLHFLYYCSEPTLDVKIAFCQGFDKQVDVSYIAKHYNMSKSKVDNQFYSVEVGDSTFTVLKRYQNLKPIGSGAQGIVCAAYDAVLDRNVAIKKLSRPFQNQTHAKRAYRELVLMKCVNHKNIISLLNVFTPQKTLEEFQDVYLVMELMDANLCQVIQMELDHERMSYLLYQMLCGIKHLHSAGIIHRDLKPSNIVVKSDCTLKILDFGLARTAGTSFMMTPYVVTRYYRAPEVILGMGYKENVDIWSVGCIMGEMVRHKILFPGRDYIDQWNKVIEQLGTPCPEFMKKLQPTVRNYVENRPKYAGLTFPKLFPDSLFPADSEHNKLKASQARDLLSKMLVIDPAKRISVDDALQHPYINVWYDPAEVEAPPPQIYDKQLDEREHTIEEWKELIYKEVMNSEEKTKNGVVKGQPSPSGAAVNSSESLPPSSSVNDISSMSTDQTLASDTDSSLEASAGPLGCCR

[14] = target: Vasopressin V1a receptor (Homo sapiens) (UniProt P37288); conditions: Compound concentration 10.0 uM
Vasopressin V1a receptor (Homo sapiens), sequence (P37288 whole entry, looked up): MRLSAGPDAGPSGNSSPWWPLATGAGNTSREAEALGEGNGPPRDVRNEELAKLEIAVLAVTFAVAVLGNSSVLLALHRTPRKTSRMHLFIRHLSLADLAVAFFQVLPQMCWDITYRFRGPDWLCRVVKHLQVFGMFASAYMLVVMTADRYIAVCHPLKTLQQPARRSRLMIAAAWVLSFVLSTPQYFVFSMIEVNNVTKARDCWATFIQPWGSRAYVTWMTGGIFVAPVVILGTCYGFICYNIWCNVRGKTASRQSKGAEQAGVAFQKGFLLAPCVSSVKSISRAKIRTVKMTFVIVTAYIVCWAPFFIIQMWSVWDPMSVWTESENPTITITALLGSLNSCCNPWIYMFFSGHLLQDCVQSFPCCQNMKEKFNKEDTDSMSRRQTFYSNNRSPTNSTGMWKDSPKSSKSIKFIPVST

Measured: inhibition

AMPK alpha2/beta1/gamma1 (Homo sapiens), sequence (P54619 whole entry partner): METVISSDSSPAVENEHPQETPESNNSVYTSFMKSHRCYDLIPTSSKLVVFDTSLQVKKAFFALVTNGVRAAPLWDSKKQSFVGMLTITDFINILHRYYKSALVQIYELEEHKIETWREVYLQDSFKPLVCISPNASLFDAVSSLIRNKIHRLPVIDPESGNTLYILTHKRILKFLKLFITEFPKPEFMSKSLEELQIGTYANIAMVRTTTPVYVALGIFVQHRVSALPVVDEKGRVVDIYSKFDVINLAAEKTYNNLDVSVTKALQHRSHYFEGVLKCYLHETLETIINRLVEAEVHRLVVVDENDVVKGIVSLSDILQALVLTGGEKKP
AMPK alpha2/beta1/gamma1 (Homo sapiens), sequence (P54646 whole entry): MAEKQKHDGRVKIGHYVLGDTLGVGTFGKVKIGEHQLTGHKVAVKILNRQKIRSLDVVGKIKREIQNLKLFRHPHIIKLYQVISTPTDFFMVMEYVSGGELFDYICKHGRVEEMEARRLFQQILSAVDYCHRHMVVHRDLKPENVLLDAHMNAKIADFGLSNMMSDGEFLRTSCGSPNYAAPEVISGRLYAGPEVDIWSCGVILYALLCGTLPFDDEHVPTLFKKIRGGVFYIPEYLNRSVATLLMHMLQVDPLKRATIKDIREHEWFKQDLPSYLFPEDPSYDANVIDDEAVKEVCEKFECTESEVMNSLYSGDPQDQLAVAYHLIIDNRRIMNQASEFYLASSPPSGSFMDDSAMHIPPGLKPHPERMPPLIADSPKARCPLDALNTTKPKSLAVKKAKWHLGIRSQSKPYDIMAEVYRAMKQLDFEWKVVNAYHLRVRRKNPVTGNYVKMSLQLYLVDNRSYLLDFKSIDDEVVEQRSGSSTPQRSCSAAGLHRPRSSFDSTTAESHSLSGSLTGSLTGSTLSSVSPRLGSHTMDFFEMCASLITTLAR
AMPK alpha2/beta1/gamma1 (Homo sapiens), sequence (Q9Y478 2-270 partner limits assumed): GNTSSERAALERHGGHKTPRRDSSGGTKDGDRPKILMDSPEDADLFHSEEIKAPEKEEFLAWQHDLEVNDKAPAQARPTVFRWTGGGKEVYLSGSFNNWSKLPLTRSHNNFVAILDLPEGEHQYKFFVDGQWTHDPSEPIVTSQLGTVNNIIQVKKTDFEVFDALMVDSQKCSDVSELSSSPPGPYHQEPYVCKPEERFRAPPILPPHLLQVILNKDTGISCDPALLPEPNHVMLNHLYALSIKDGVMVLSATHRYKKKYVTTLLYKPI

C[C@@H]1CN(c2cc(-c3n[nH]c4ccc(OC5(C)CC5)cc34)ncn2)C[C@H](C)O1 [MLi-2]
inactive: [1] 4.36% | [2] 5.68% | [3] 11% | [4] 3.84% | [5] 6.06% | [6] -0.77% | [7] 14.9% | [8] 5% | [9] 3.26% | [10] -4% | [11] 14% | [12] 3.08% | [13] 13.6% | [14] -9%
